{
  "source": "PubChem BioAssay (NCI)",
  "test_in_all_cases": "growth of human tumour cells (NCI), 48 h",
  "key": {"[1]": {"system": "786-0 renal"}, "[2]": {"system": "A498 renal"}, "[3]": {"system": "A549 NSCLC"}, "[4]": {"system": "ACHN renal"}, "[5]": {"system": "CAKI-1 renal"}, "[6]": {"system": "CCRF-CEM leukemia"}, "[7]": {"system": "COLO 205 colon"}, "[8]": {"system": "DLD-1 colon"}, "[9]": {"system": "DMS 114 small cell lung"}, "[10]": {"system": "DMS 273 small cell lung"}, "[11]": {"system": "EKVX NSCLC"}, "[12]": {"system": "HCC-2998 colon"}, "[13]": {"system": "HCT-116 colon"}, "[14]": {"system": "HCT-15 colon"}, "[15]": {"system": "HL-60(TB) leukemia"}, "[16]": {"system": "HOP-18 NSCLC"}, "[17]": {"system": "HOP-92 NSCLC"}, "[18]": {"system": "HT29 colon"}, "[19]": {"system": "IGROV1 ovarian"}, "[20]": {"system": "K-562 leukemia"}, "[21]": {"system": "KM12 colon"}, "[22]": {"system": "KM20L2 colon"}, "[23]": {"system": "LOX IMVI melanoma"}, "[24]": {"system": "LXFL 529 NSCLC"}, "[25]": {"system": "M14 melanoma"}, "[26]": {"system": "M19-MEL melanoma"}, "[27]": {"system": "MALME-3M melanoma"}, "[28]": {"system": "MOLT-4 leukemia"}, "[29]": {"system": "NCI-H226 lung"}, "[30]": {"system": "NCI-H23 lung"}, "[31]": {"system": "NCI-H460 lung"}, "[32]": {"system": "NCI-H522 lung"}, "[33]": {"system": "OVCAR-3 ovarian"}, "[34]": {"system": "OVCAR-4 ovarian"}, "[35]": {"system": "OVCAR-5 ovarian"}, "[36]": {"system": "OVCAR-8 ovarian"}, "[37]": {"system": "RPMI-8226 leukemia"}, "[38]": {"system": "RXF 393 renal"}, "[39]": {"system": "SF-268 CNS"}, "[40]": {"system": "SF-295 CNS"}, "[41]": {"system": "SF-539 CNS"}, "[42]": {"system": "SK-MEL-2 melanoma"}, "[43]": {"system": "SK-MEL-28 melanoma"}, "[44]": {"system": "SK-MEL-5 melanoma"}, "[45]": {"system": "SK-OV-3 ovarian"}, "[46]": {"system": "SN12C renal"}, "[47]": {"system": "SNB-19 CNS"}, "[48]": {"system": "SNB-75 CNS"}, "[49]": {"system": "SNB-78 CNS"}, "[50]": {"system": "SR leukemia"}, "[51]": {"system": "SW-620 colon"}, "[52]": {"system": "TK-10 renal"}, "[53]": {"system": "U251 CNS"}, "[54]": {"system": "UACC-257 melanoma"}, "[55]": {"system": "UACC-62 melanoma"}, "[56]": {"system": "UO-31 renal"}, "[57]": {"system": "XF 498 CNS"}, "[58]": {"system": "HOP-62 NSCLC"}, "[59]": {"system": "RXF-631 renal"}},
  "note": "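Method: 48-hour compound exposure of cells in 96-well plates, five concentrations, linear interpolation of endpoints. TGI: total growth inhibition.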",
  "data": [
    {"smiles": "O=Cc1ccccc1COC(=O)c1cc(C(=O)OCc2ccccc2C=O)c(C(=O)OCc2ccccc2C=O)cc1C(=O)OCc1ccccc1C=O", "values": [
      {"measurement": "TGI", "setting": "[1]", "value": "> 100", "unit": "µM"},
      {"measurement": "TGI", "setting": "[2]", "value": "> 100", "unit": "µM"},
      {"measurement": "TGI", "setting": "[3]", "value": "> 100", "unit": "µM"},
      {"measurement": "TGI", "setting": "[4]", "value": "> 100", "unit": "µM"},
      {"measurement": "TGI", "setting": "[5]", "value": "> 100", "unit": "µM"},
      {"measurement": "TGI", "setting": "[6]", "value": "> 100", "unit": "µM"},
      {"measurement": "TGI", "setting": "[7]", "value": "> 100", "unit": "µM"},
      {"measurement": "TGI", "setting": "[8]", "value": "> 100", "unit": "µM"},
      {"measurement": "TGI", "setting": "[9]", "value": "> 100", "unit": "µM"},
      {"measurement": "TGI", "setting": "[10]", "value": "> 100", "unit": "µM"},
      {"measurement": "TGI", "setting": "[11]", "value": "> 100", "unit": "µM"},
      {"measurement": "TGI", "setting": "[12]", "value": "> 100", "unit": "µM"},
      {"measurement": "TGI", "setting": "[13]", "value": "> 100", "unit": "µM"},
      {"measurement": "TGI", "setting": "[14]", "value": "> 100", "unit": "µM"},
      {"measurement": "TGI", "setting": "[15]", "value": "> 100", "unit": "µM"},
      {"measurement": "TGI", "setting": "[16]", "value": "> 100", "unit": "µM"},
      {"measurement": "TGI", "setting": "[17]", "value": "> 100", "unit": "µM"},
      {"measurement": "TGI", "setting": "[18]", "value": "> 100", "unit": "µM"},
      {"measurement": "TGI", "setting": "[19]", "value": "> 100", "unit": "µM"},
      {"measurement": "TGI", "setting": "[20]", "value": "> 100", "unit": "µM"},
      {"measurement": "TGI", "setting": "[21]", "value": "> 100", "unit": "µM"},
      {"measurement": "TGI", "setting": "[22]", "value": "> 100", "unit": "µM"},
      {"measurement": "TGI", "setting": "[23]", "value": "> 100", "unit": "µM"},
      {"measurement": "TGI", "setting": "[24]", "value": "> 100", "unit": "µM"},
      {"measurement": "TGI", "setting": "[25]", "value": "> 100", "unit": "µM"},
      {"measurement": "TGI", "setting": "[26]", "value": "> 100", "unit": "µM"},
      {"measurement": "TGI", "setting": "[27]", "value": "> 100", "unit": "µM"},
      {"measurement": "TGI", "setting": "[28]", "value": "> 100", "unit": "µM"},
      {"measurement": "TGI", "setting": "[29]", "value": "> 100", "unit": "µM"},
      {"measurement": "TGI", "setting": "[30]", "value": "> 100", "unit": "µM"},
      {"measurement": "TGI", "setting": "[31]", "value": "> 100", "unit": "µM"},
      {"measurement": "TGI", "setting": "[32]", "value": "> 100", "unit": "µM"},
      {"measurement": "TGI", "setting": "[33]", "value": "> 100", "unit": "µM"},
      {"measurement": "TGI", "setting": "[34]", "value": "> 100", "unit": "µM"},
      {"measurement": "TGI", "setting": "[35]", "value": "> 100", "unit": "µM"},
      {"measurement": "TGI", "setting": "[36]", "value": "> 100", "unit": "µM"},
      {"measurement": "TGI", "setting": "[37]", "value": "> 100", "unit": "µM"},
      {"measurement": "TGI", "setting": "[38]", "value": "> 100", "unit": "µM"},
      {"measurement": "TGI", "setting": "[39]", "value": "> 100", "unit": "µM"},
      {"measurement": "TGI", "setting": "[40]", "value": "> 100", "unit": "µM"},
      {"measurement": "TGI", "setting": "[41]", "value": "> 100", "unit": "µM"},
      {"measurement": "TGI", "setting": "[42]", "value": "> 100", "unit": "µM"},
      {"measurement": "TGI", "setting": "[43]", "value": "> 100", "unit": "µM"},
      {"measurement": "TGI", "setting": "[44]", "value": "> 100", "unit": "µM"},
      {"measurement": "TGI", "setting": "[45]", "value": "> 100", "unit": "µM"},
      {"measurement": "TGI", "setting": "[46]", "value": "> 100", "unit": "µM"},
      {"measurement": "TGI", "setting": "[47]", "value": "> 100", "unit": "µM"},
      {"measurement": "TGI", "setting": "[48]", "value": 65.4, "unit": "µM"},
      {"measurement": "TGI", "setting": "[49]", "value": "> 100", "unit": "µM"},
      {"measurement": "TGI", "setting": "[50]", "value": "> 100", "unit": "µM"},
      {"measurement": "TGI", "setting": "[51]", "value": "> 100", "unit": "µM"},
      {"measurement": "TGI", "setting": "[52]", "value": "> 100", "unit": "µM"},
      {"measurement": "TGI", "setting": "[53]", "value": "> 100", "unit": "µM"},
      {"measurement": "TGI", "setting": "[54]", "value": "> 100", "unit": "µM"},
      {"measurement": "TGI", "setting": "[55]", "value": "> 100", "unit": "µM"},
      {"measurement": "TGI", "setting": "[56]", "value": "> 100", "unit": "µM"},
      {"measurement": "TGI", "setting": "[57]", "value": "> 100", "unit": "µM"}
    ]},
    {"smiles": "CCCCCCc1cc(C(=O)Nc2ccc(Cl)cc2)nc(=S)[nH]1", "values": [
      {"measurement": "TGI", "setting": "[2]", "value": "> 1", "unit": "µM"},
      {"measurement": "TGI", "setting": "[3]", "value": "> 100", "unit": "µM"},
      {"measurement": "TGI", "setting": "[5]", "value": "> 100", "unit": "µM"},
      {"measurement": "TGI", "setting": "[6]", "value": "> 100", "unit": "µM"},
      {"measurement": "TGI", "setting": "[11]", "value": "> 100", "unit": "µM"},
      {"measurement": "TGI", "setting": "[14]", "value": "> 1", "unit": "µM"},
      {"measurement": "TGI", "setting": "[15]", "value": "> 100", "unit": "µM"},
      {"measurement": "TGI", "setting": "[58]", "value": "> 100", "unit": "µM"},
      {"measurement": "TGI", "setting": "[17]", "value": "> 100", "unit": "µM"},
      {"measurement": "TGI", "setting": "[19]", "value": "> 100", "unit": "µM"},
      {"measurement": "TGI", "setting": "[20]", "value": "> 100", "unit": "µM"},
      {"measurement": "TGI", "setting": "[21]", "value": "> 100", "unit": "µM"},
      {"measurement": "TGI", "setting": "[22]", "value": "> 1", "unit": "µM"},
      {"measurement": "TGI", "setting": "[24]", "value": "> 100", "unit": "µM"},
      {"measurement": "TGI", "setting": "[25]", "value": "> 100", "unit": "µM"},
      {"measurement": "TGI", "setting": "[28]", "value": "> 100", "unit": "µM"},
      {"measurement": "TGI", "setting": "[30]", "value": "> 100", "unit": "µM"},
      {"measurement": "TGI", "setting": "[32]", "value": "> 100", "unit": "µM"},
      {"measurement": "TGI", "setting": "[33]", "value": "> 1", "unit": "µM"},
      {"measurement": "TGI", "setting": "[34]", "value": "> 100", "unit": "µM"},
      {"measurement": "TGI", "setting": "[35]", "value": 85.8, "unit": "µM"},
      {"measurement": "TGI", "setting": "[37]", "value": "> 100", "unit": "µM"},
      {"measurement": "TGI", "setting": "[59]", "value": "> 100", "unit": "µM"},
      {"measurement": "TGI", "setting": "[41]", "value": "> 100", "unit": "µM"},
      {"measurement": "TGI", "setting": "[42]", "value": "> 100", "unit": "µM"},
      {"measurement": "TGI", "setting": "[44]", "value": "> 100", "unit": "µM"},
      {"measurement": "TGI", "setting": "[45]", "value": "> 100", "unit": "µM"},
      {"measurement": "TGI", "setting": "[46]", "value": "> 100", "unit": "µM"},
      {"measurement": "TGI", "setting": "[47]", "value": "> 1", "unit": "µM"},
      {"measurement": "TGI", "setting": "[50]", "value": "> 100", "unit": "µM"},
      {"measurement": "TGI", "setting": "[51]", "value": "> 100", "unit": "µM"},
      {"measurement": "TGI", "setting": "[53]", "value": "> 100", "unit": "µM"},
      {"measurement": "TGI", "setting": "[54]", "value": "> 100", "unit": "µM"},
      {"measurement": "TGI", "setting": "[56]", "value": "> 100", "unit": "µM"}
    ]}
  ]
}
